In ChEMBL document CHEMBL5108022, “Structure-Activity relationship study of benzothiophene oxobutanoic acid analogues leading to novel stimulator of interferon gene (STING) agonists” (Eur J Med Chem, 2022):
The source made the active and inactive calls. The calls are words filed in the database; no cut-off is given here.

What was measured:
[1] = biological target: T1, Stimulator of interferon genes protein (Homo sapiens, UniProt Q86WV6); test: Agonist activity at STING in human THP1-Blue ISG cells assessed as fold change in ISG activation at 10 uM incubated for 24 hrs by Quanti-Luc or Quanti-blue reagent based luminescence assay; format: cell-based; conditions: filed as agonist
Target sequence in this assay (Q86WV6 whole entry): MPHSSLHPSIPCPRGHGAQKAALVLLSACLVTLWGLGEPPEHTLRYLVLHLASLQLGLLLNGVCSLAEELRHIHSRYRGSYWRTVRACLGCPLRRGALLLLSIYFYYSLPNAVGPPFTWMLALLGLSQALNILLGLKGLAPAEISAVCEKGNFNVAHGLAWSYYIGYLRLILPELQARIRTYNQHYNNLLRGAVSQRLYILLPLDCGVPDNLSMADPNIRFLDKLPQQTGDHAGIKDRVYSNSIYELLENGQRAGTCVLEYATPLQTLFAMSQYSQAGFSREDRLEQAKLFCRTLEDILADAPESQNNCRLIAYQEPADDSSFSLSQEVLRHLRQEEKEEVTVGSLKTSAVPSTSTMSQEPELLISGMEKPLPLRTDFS

[2] = biological target: T2, Stimulator of interferon genes protein (Mus musculus) (UniProt Q3TBT3); test: Agonist activity at STING in mouse RAW-Lucia ISG cells assessed as fold change in ISG activation at 50 uM incubated for 24 hrs by Quanti-Luc or Quanti-blue reagent based luminescence assay; format: cell-based
T2 sequence (whole entry): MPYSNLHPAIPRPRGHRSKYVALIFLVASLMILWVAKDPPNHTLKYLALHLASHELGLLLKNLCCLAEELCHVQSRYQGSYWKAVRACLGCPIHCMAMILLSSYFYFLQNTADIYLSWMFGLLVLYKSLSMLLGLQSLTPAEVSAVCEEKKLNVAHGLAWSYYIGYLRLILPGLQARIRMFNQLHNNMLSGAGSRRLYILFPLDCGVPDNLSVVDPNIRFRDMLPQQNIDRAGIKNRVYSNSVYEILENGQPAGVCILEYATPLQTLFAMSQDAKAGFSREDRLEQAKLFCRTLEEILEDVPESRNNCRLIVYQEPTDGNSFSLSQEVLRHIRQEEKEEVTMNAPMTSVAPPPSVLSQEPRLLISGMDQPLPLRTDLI

[3] = biological target: T1, Stimulator of interferon genes protein; test: Binding affinity to STING HAQ variant (unknown origin)
Target sequence in this assay (Q86WV6 whole entry, looked up, change not shown): as the sequence (Q86WV6 whole entry) above

[4] = biological target: T1, Stimulator of interferon genes protein; test: Agonist activity at STING in human THP1-Dual cells assessed as ISG pathway activation incubated for 24 hrs by Quanti-Luc or Quanti-blue reagent based luminescence assay; format: cell-based
Target sequence in this assay (Q86WV6 whole entry): as the sequence (Q86WV6 whole entry) above

CT26 [5] = test: Antitumor activity against mouse CT26 cells implanted in immunocompetent Balb/c mouse assessed as suppression of tumor growth at 250 ug, IT administered on day 1,4 and 7 and measured twice per week; format: functional, cell-based; conditions: dose 250.0 µg, time 7.0 day
4T1 = test: Antitumor activity against mouse 4T1 cells implanted in Balb/c mouse assessed as inhibition of tumor growth at 100 mg/kg, po administered via gavage on day 1,4 and 7 and measured twice per week; format: functional, organism-based; conditions: time 7.0 day
[6] = Toxicity in C57BL/6 mouse implanted with mouse B16-F10 cells assessed as reduction in body weight at 500 ug, IT administered on day 1,4 and 7 and measured twice per week for 8 days; format: cell-based; conditions: in vivo, other, 192 h, dose 500 µg, time 8 day
[7] = Toxicity in C57BL/6 mouse implanted with mouse B16-F10 cells assessed as reduction in body weight at 100 mg/kg, po administered via gavage on day 1,4 and 7 and measured twice per week; format: organism-based; conditions: in vivo, 168 h, time 7 day
[8] = Toxicity in STING-knockout C57BL/6 mouse implanted with mouse B16-F10 cells assessed as reduction in body weight at 500 ug, IT administered on day 1,4 and 7 and measured twice per week for 8 days; format: cell-based; conditions: in vivo, other, 192 h, dose 500 µg, time 8 day
Mus musculus = organism: Mus musculus; test: Binding affinity to mouse STING R231 variant assessed as thermal stability by measuring rightward shift in fluorescence curve at 50 uM by SYPRO orange dye based differential scanning fluorimetry assay; conditions: filed as agonist
[9] = biological target: T1, Stimulator of interferon genes protein; test: Agonist activity at STING in human THP1-Dual cells assessed as increase in IFN-beta mRNA expression at 3.3 to 30 uM incubated for 6 hrs by RT-PCR analysis; format: cell-based; conditions: filed as agonist, dose 3.3-30 µM
Target sequence in this assay (Q86WV6 whole entry): as the sequence (Q86WV6 whole entry) above

B16-F10 [10] = test: Antitumor activity against mouse B16-F10 cells implanted in immunocompetent C57BL/6 mouse assessed as inhibition of tumor growth at 500 ug, IT administered on day 1,4 and 7 and measured twice per week for 8 days; format: functional, cell-based; conditions: dose 500.0 µg, time 8.0 day
CT26 [11] = test: Antitumor activity against mouse CT26 cells implanted in immunocompetent Balb/c mouse assessed as suppression of tumor growth at 500 ug, IT administered on day 1,4 and 7 and measured twice per week; format: functional, cell-based; conditions: dose 500.0 µg, time 7.0 day
[12] = biological target: T1, Stimulator of interferon genes protein; test: Agonist activity at STING in human THP1-Dual cells assessed as increase in TBK1 phosphorylation at 3.3 to 30 uM incubated for 2 to 4 hrs by Western blot analysis; format: cell-based; conditions: filed as agonist, dose 3.3-30 µM, time 2-4 hrs
Target sequence in this assay (Q86WV6 whole entry): as the sequence (Q86WV6 whole entry) above

Homo sapiens = organism: Homo sapiens; test: Binding affinity to human STING 293Q variant assessed as thermal stability by measuring rightward shift in fluorescence curve at 50 uM by SYPRO orange dye based differential scanning fluorimetry assay; conditions: filed as agonist
[13] = tested on: Stimulator of interferon genes protein (Homo sapiens), Q86WV6 [UNDEFINED MUTATION]; test: Agonist activity at STING R232 variant in human 293-Dual hSTING-R232 cells assessed as activation of ISG pathway at 3.3 to 30 uM incubated for 48 hrs by Quanti-Luc or Quanti-blue reagent based luminescence assay; format: cell-based; conditions: filed as agonist, dose 3.3-30 µM
[14] = biological target: T1, Stimulator of interferon genes protein; test: Agonist activity at STING in human THP1-Dual cells assessed as increase in IRF3 phosphorylation at 3.3 to 30 uM incubated for 2 to 4 hrs by Western blot analysis; format: cell-based; conditions: filed as agonist, dose 3.3-30 µM, time 2-4 hrs
Target sequence in this assay (Q86WV6 whole entry): as the sequence (Q86WV6 whole entry) above

[15] = Toxicity against Balb/c mouse implanted with mouse 4T1 cells assessed as reduction in body weight at 100 mg/kg, po administered via gavage on day 1,4 and 7 and measured twice per week for 22 days; format: organism-based; conditions: in vivo, 528 h, time 22 day
CT26 [16] = test: Immunological memory derived antitumor activity against mouse CT26 cells implanted in immunocompetent Balb/c mouse assessed as suppression of tumor growth at 500 ug, IT administered on day 1,4 and 7 followed by reinoculation of cells into tumor-free animal after 2 months and measured for 22 days post inoculation; format: functional, cell-based; conditions: dose 500.0 µg, time 22.0 day
[17] = biological target: T1, Stimulator of interferon genes protein; test: Agonist activity at STING in human THP1-Dual cells assessed as increase in IP-10 mRNA expression at 3.3 to 30 uM incubated for 6 hrs by RT-PCR analysis; format: cell-based; conditions: filed as agonist, dose 3.3-30 µM
Target sequence in this assay (Q86WV6 whole entry): as the sequence (Q86WV6 whole entry) above

B16-F10 [18] = test: Antitumor activity against mouse B16-F10 cells implanted in immunocompetent C57BL/6 mouse assessed as inhibition of tumor growth at 100 mg/kg, po administered via gavage on day 1,4 and 7 and measured twice per week; format: functional, organism-based; conditions: time 7.0 day
[19] = Toxicity in Balb/c mouse implanted with mouse CT26 cells assessed as reduction in body weight at 500 ug, IT administered on day 1,4 and 7 and measured twice per week; format: cell-based; conditions: in vivo, other, 168 h, dose 500 µg, time 7 day
[20] = tested on: Stimulator of interferon genes protein (Homo sapiens), Q86WV6 [UNDEFINED MUTATION]; test: Agonist activity at STING H232 variant in human 293-Dual hSTING-H232 cells assessed as activation of ISG pathway at 3.3 to 30 uM incubated for 48 hrs by Quanti-Luc or Quanti-blue reagent based luminescence assay; format: cell-based; conditions: filed as agonist, dose 3.3-30 µM
[21] = biological target: T2, Stimulator of interferon genes protein (Mus musculus); test: Agonist activity at STING in mouse RAW-Lucia ISG cells assessed as activation of ISG pathway incubated for 24 hrs by Quanti-Luc or Quanti-blue reagent based luminescence assay; format: cell-based; conditions: filed as agonist, dose 3.12-50 µM, DDE = dose-dependent effect
[22] = Toxicity in STING-knockout C57BL/6 mouse implanted with mouse B16-F10 cells assessed as reduction in body weight at 50 ug, IT administered on day 1,4 and 7 and measured twice per week for 8 days; format: cell-based; conditions: in vivo, other, 192 h, dose 50 µg, time 8 day
[23] = Toxicity in C57BL/6 mouse implanted with mouse B16-F10 cells assessed as reduction in body weight at 50 ug, IT administered on day 1,4 and 7 and measured twice per week for 8 days; format: cell-based; conditions: in vivo, other, 192 h, dose 50 µg, time 8 day
[24] = biological target: T1, Stimulator of interferon genes protein; test: Agonist activity at STING in human THP-1 cells assessed as increase in IFN-beta secretion incubated for 5 hrs by AlphaLISA assay; format: cell-based
[25] = biological target: T1, Stimulator of interferon genes protein; test: Displacement of cGAMP from human full length STING HAQ variant expressed in insect microsomes incubated for 16 hrs by TopCount scintillation counting method; parameters: species or system Microsome
Target sequence in this assay (Q86WV6 whole entry, looked up, change not shown): as the sequence (Q86WV6 whole entry) above

Chain of Stimulator of interferon genes protein (Homo sapiens), Q86WV6 [UNDEFINED MUTATION] (Q86WV6 whole entry, looked up, change not shown): as the sequence (Q86WV6 whole entry) above

| SMILES | fold change (FC) [1] | fold change (FC) ([2]; filed as agonist) | also measured |
| --- | --- | --- | --- |
| COc1cc2cc(C(=O)CCCC(=O)O)sc2cc1OC | 1.1 | 0.8 | – |
| COc1cc2cc(C(=O)CCC(=O)O)sc2cc1OC | 23.5 | 13.6 | EC50 [3]: 1720 nM; EC50 [4]: 8140 nM |
| COc1cc2cc(C3=NOC(C(=O)O)C3)sc2cc1OC (centres undefined) | 3.8 | 0.9 | – |
| COc1cc2cc(C(=O)CCC(=O)N(C)O)sc2cc1OC | 15 | 0.7 | – |
| COc1cc2cc(C(=O)CCC(=O)ONC3CCCCC3)sc2cc1OC | 25 | 1.1 | – |
| COc1cc2cc(NC(=O)CC(=O)O)sc2cc1OC | 1 | 1.1 | – |
| COc1cc2cc(C(=O)CCC(=O)N(O)C(C)C)sc2cc1OC | 1 | 1.2 | – |
| COc1cc2cc(C(=O)CCC(=O)ONCc3ccccc3)sc2cc1OC | 22.4 | 25.3 | EC50 [4]: 6140 nM |
| COc1cc2cc(C(=O)CCC(=O)NOCc3ccccc3)sc2cc1OC | 16.5 | 0.8 | – |
| Cc1ccc2c(=O)c3cccc(CC(=O)O)c3oc2c1C | – | – | Activity (CT26 [5]): Active |
| COc1cc2cc(C(=O)CCC(=O)ONC(C)(C)C)sc2cc1OC | 21.2 | – | fold change (FC) [2]: < 1 |
| COc1cc2cc(C(=O)NCC(=O)O)sc2cc1OC | 1.2 | – | – |
| COc1cc2cc(C(=O)CCC(=O)N(C)OC)sc2cc1OC | 3.2 | 0.5 | – |
| COc1cc2cc(C(=O)NCCC(=O)O)sc2cc1OC | 1.2 | – | – |
| COc1cc2cc(C(=O)CCC(=O)ONC(C)C)sc2cc1OC | 25.4 | 19.3 | inhibition (4T1): Active; Activity [6]: Non-Toxic; Activity [7]: Non-Toxic; Activity [8]: Non-Toxic; Activity (Mus musculus): Active; Activity [9]: Active; inhibition (B16-F10 [10]): Active; Activity (CT26 [11]): Active; Activity [12]: Active; Activity (Homo sapiens): Active; Activity [13]: Active; Activity [14]: Active; Activity [15]: Non-Toxic; Activity (CT26 [16]): Active; Activity [17]: Active; inhibition (B16-F10 [18]): Active; EC50 [4]: 2550 nM; Activity [19]: Non-Toxic; Activity [20]: Active; Activity [21]: Dde |
| COc1cc2cc(C(O)CCC(=O)O)sc2cc1OC (centres undefined) | 0.9 | – | fold change (FC) [2]: < 1 |
| CONC(=O)CCC(=O)c1cc2cc(OC)c(OC)cc2s1 | 24.2 | 2.7 | – |
| Nc1ncnc2c1ncn2[C@@H]1O[C@@H]2CO[P@@](=O)(S)O[C@@H]3[C@H](O)[C@@H](CO[P@@](=O)(S)O[C@H]2[C@H]1O)O[C@H]3n1cnc2c(N)ncnc21 | – | – | Activity [22]: Non-Toxic; Activity [23]: Non-Toxic |
| COc1cc2c(cc1OC)S(=O)(=O)C(C(=O)CCC(=O)O)=C2 | 1.1 | 0.7 | – |
| COc1cc2cc(CCCC(=O)O)sc2cc1OC | 1 | – | fold change (FC) [2]: < 1 |
| COc1cc2nc(C(=O)CCC(=O)O)[nH]c2cc1OC | 0.9 | 1.1 | – |
| COc1cc2cc(C(CCC(=O)O)OC)sc2cc1OC (centres undefined) | 1 | 0.5 | – |
| COc1cc2cc(-c3cc(C(=O)O)[nH]n3)sc2cc1OC | 1 | 1 | – |
| COc1cc2cc(C(=O)SCC(=O)O)sc2cc1OC | 1 | 1 | – |
| COc1cc2cc(C(=O)CCC(=O)N(O)Cc3ccccc3)sc2cc1OC | 2.3 | 1.1 | – |
| COc1cc2sc(C(=O)CC(C)(C)C(=O)O)cc2c(F)c1OCCCOc1c(OC)cc2sc(C(=O)CC(C)(C)C(=O)O)cc2c1F | – | – | EC50 [24]: 8 nM; IC50 [25]: 2 nM |
| COc1cc2cc(C(=O)CCC(=O)O)oc2cc1OC | 0.9 | 1 | – |
